Measured values from US20260297060A1, “COMPOUNDS FOR THE DEGRADATION OF MUTANT BRAF” (C4 THERAPEUTICS, INC., priority 2023, published 2026).
Where two headings read alike, the source gives them in different places.

Key:
BRAF V600E = biological target: T1, BRAF V600E (Homo sapiens, UniProt P15056+Q96SW2, V600E); experiment: BRAF V600E HiBiT Degradation Assay; assay type: cell-based
T1 construct: knock-in of the HiBiT tag to the endogenous BRAF V600E locus; host or cells: A375.10 (A375 clonal line, CRISPR HiBiT knock-in at the endogenous BRAF V600E locus)
T1 sequence (P15056 whole entry V600E): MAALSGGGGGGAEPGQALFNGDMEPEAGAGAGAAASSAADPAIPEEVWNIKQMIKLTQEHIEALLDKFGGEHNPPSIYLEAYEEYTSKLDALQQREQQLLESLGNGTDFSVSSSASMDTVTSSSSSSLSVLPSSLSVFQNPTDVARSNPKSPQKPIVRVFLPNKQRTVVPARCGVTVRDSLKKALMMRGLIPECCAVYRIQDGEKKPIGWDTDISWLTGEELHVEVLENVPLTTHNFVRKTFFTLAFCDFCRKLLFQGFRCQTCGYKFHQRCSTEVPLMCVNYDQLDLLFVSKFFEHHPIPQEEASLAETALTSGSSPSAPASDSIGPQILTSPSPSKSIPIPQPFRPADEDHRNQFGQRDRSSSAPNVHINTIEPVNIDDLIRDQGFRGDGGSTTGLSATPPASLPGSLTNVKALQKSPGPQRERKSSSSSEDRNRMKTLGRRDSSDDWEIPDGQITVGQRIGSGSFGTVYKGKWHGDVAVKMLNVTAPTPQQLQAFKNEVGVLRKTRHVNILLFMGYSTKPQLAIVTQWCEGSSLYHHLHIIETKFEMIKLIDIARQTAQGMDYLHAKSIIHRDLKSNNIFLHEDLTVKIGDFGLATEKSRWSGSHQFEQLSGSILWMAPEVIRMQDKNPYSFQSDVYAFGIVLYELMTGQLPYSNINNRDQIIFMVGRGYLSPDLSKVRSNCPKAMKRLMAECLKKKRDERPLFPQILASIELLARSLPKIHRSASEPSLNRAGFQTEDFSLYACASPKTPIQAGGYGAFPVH
T1 sequence (Q96SW2 whole entry): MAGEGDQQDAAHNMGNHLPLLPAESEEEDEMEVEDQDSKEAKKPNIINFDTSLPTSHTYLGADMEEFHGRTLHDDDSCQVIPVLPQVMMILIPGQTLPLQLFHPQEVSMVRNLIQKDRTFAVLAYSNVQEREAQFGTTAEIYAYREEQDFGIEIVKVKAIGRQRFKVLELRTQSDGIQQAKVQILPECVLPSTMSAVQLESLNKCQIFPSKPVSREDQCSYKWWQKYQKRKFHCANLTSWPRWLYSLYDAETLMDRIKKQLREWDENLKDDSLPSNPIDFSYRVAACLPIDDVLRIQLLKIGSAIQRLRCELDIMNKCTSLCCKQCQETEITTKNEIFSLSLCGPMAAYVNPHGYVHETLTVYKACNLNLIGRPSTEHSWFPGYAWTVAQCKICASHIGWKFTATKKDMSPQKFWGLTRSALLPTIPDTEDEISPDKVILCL
T1 sequence (Q16531 whole entry partner): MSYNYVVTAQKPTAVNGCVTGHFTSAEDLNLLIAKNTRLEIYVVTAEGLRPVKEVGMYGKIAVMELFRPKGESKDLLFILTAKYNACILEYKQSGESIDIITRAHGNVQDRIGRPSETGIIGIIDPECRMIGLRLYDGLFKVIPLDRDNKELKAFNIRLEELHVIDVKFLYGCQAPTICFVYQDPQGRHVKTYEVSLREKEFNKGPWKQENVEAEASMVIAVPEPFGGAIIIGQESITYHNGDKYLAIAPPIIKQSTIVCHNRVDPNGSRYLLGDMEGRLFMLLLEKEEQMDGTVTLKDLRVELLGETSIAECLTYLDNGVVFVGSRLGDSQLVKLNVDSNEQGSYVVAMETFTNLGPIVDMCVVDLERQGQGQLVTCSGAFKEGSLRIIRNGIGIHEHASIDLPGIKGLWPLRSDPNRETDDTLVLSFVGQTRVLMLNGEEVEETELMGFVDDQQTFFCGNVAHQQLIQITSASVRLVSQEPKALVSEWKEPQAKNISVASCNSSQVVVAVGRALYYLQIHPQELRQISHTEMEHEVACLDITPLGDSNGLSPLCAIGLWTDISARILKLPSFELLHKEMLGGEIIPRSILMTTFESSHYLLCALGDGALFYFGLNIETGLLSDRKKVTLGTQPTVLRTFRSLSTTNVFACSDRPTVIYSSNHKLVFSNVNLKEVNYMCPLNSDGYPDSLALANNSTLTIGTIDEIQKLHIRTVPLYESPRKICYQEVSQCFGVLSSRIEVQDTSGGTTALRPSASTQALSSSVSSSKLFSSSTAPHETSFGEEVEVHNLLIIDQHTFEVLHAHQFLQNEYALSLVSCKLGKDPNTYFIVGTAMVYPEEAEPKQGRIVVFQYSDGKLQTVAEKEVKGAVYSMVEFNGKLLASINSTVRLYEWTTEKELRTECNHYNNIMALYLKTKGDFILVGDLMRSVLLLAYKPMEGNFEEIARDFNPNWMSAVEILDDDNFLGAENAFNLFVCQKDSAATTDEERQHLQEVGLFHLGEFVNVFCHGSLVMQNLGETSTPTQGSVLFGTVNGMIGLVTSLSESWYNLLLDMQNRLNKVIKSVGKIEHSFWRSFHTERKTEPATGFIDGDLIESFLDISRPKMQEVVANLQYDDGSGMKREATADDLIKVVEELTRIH
Procedure: Compounds of this invention were tested for degradation of mutant BRAF V600E using the HiBiT assay, a luminescence-based assay for quantification of cellular protein levels using the Nano-Glo® HiBiT Lytic Detection System (Catalog No. N3050, Promega, Madison, WI USA). This assay utilizes the HiBiT tag on a protein of interest, which creates a luminescent signal in the presence of a complementing peptide and its substrate, the quantification of which is proportional to the amount of HiBiT-tagged protein in the cell.
The cell line A375, which is homozygous for the BRAF V600E mutation, was purchased from ATCC (Catalog No. CRL-1619, Manassas, VA, USA). A375 cells were engineered to express HiBiT tagged BRAF V600E by CRISPR knock-in of the HiBiT tag to the endogenous BRAF V600E locus, followed by selection of a clonal population containing the appropriate knock-in (referred to here as cell line A375.10). A375.10 cells were maintained at 37° C. in an atmosphere of 5% CO2 in Dulbecco's modified Eagle Medium (DMEM) with high glucose (Catalog No. 11965092), supplemented with 10% fetal bovine serum (FBS; Catalog No. 10437036), and 10 mM HEPES (Catalog No. 15630130), all obtained from Thermofisher Scientific (Waltham, MA, USA). Cell culture flasks and 384-well microplates were acquired from VWR (Radnor, PA, USA).
Test compounds were prepared by dissolving neat compounds in DMSO (Catalog No. D8418, Sigma-Aldrich, Inc., St. Louis, MO, USA) to generate 10 mM stock solutions, which were serially diluted (half log) in DMSO to generate an 11-point dose series (1000× final treatment concentration) in a 384-Well Low Dead Volume Microplate (Catalog No. LP-0200, Labcyte, San Jose, CA, USA). Using the Echo 550 Acoustic Liquid Handler (Labcyte), 30 nL of serially diluted compound solutions were dispensed in duplicate to 384-well TC-treated microplates (Catalog No. 3571, Corning, Glendale, CA, USA) and 30 nL of DMSO was dispensed to control wells. A375.10 cells resuspended in growth media without phenol red (Catalog No. 21063-029, Thermofisher Scientific) were then added to 384-well plates containing the 11-point dose series of compounds in duplicate (maximum 10 μM concentration for final treatment) at a density of 12,000 cells/well in 30 μl. Plates were then spun briefly, and cells were incubated with compound at 37° C. for 2 hours, 6 hours, or 24 hours.
Following the appropriate treatment time, Nano-Glo® HiBiT Lytic Assay reagents were added to the cells per the manufacturer's instructions by adding 30 μl of reagent per well, and the luminescence signal was acquired by plate reader. Cells treated with DMSO only (no test compound treatment) were used as the negative control (N). Media only (no cells added) with Nano-Glo reagent addition was used as the background or positive control (P). The percent response of compound treated samples were calculated by subtracting out the background signal (P) and normalizing to the DMSO control (N) as follows.
% Response=100×(Treated Signal−Average (P))/(Average (N)−Average (P)).
Data were analyzed with a 4-parameter logistic fit to generate sigmoidal dose-response curves. The DC50 is the concentration of compound at which 50% of the cellular BRAF V600E has been degraded. The Emax, or maximum effect of each compound, represents the amount of residual protein remaining in the cell following compound treatment. The IP, or inflection point of the dose-response curve, is the concentration of compound at which 50% of the observed degradation response is achieved.
The experiment was conducted at least once for each compound. If the experiment was conducted multiple times, the data shown in the table is the average of the two or more experiments.

A375-NRAS^Q61K cells = experiment: CTGlo Cell Viability Assay, A375-NRAS^Q61K (A375.11) cells, 96 hours; assay type: cell-based, human; settings: A375.11 (A375-NRAS^Q61K) cells
Procedure: Compounds of this invention were tested for their effect on the viability of A375-NRAS^Q61K cells by quantification of ATP using the CellTiter-Glo® 2.0 Cell Viability Assay (Catalog No. G9243, Promega, Madison, WI, USA). This assay produces a luminescent signal in the presence of ATP, which is indicative of metabolically active cells, making the luminescence readout proportional to the number of viable cells.
A375-NRAS^Q61K cells (harboring BRAF homozygous V600E mutation and NRAS homozygous Q61K mutation) were purchased from ATCC (Catalog No. CRL-1619IG-2, Manassas, VA, USA). A375-NRAS^Q61K cells (also referred to here as A375.11) were maintained at 37° C. in an atmosphere of 5% CO2 in Dulbecco's modified Eagle Medium (DMEM) with high glucose (Catalog No. 11965092), supplemented with 10% fetal bovine serum (FBS; Catalog No. 10437036), and 10 mM HEPES (Catalog No. 15630130), all obtained from Thermofisher Scientific (Waltham, MA, USA). Cell culture flasks and 384-well microplates were acquired from VWR (Radnor, PA, USA).
Test compounds were prepared by dissolving neat compounds in DMSO (Catalog No. D8418, Sigma-Aldrich, Inc., St. Louis, MO, USA) to generate 10 mM stock solutions, which were serially diluted (half log) in DMSO to generate an 11-point dose series (1000× final treatment concentration) in a 384-Well Low Dead Volume Microplate (Catalog No. LP-0200, Labcyte, San Jose, CA, USA). Using the Echo 550 Acoustic Liquid Handler (Labcyte), 50 nL of serially diluted compound solutions were dispensed in duplicate to 384-well TC-treated microplates (Catalog No. 3571, Corning, Glendale, CA, USA) and 50 nL of DMSO was dispensed to control wells. A375-NRAS^Q61K cells were resuspended in growth media and added to 384-well plates containing a […] of compounds in duplicate (maximum 10 μM concentration for final treatment) at a density of 250 cells/well in 50 μl. Cells were also plated to a 384-well plate with no compound treatment, to which CellTiter-Glo® reagent was added and luminescence was read right after plating to act as a baseline signal at time of plating (To). Plates treated with compound were then spun briefly, and cells were incubated with compound at 37° C. for 96 hours.
After 96 hours compound treatment, CellTiter-Glo® reagent was added to the cells at 25 μl per well and luminescence was read out on the PHERAstar plate reader (BMG Labtech, Ortenberg, Germany). Cells treated with DMSO only (no test compound treatment) were used as the negative control (N). DMSO treated cells with no CellTiter-Glo® reagent added were used as the background or positive control (P). Viability was determined by subtracting out the average background signal (P) and normalized to the average untreated signal (N) set at 100%.
Data were analyzed with a 4-parameter logistic fit to generate sigmoidal dose-response curves. The half-maximal inhibition of cell growth (GI50) is the concentration at which the fitted curve crosses 50%. The Emax, or maximum effect of each compound, represents the lowest % viability achieved following compound treatment.

[1] = A375.10 cells, BRAF V600E, 2 hours, inflection point, read-out: HiBiT-Degradation A375.10 BRAF 2 hours IP
[2] = A375.10 cells, BRAF V600E, 2 hours, read-out: HiBiT-Degradation A375.10 BRAF 2 hours DC50
[3] = A375.10 cells, BRAF V600E, 2 hours, residual protein remaining

HiBiT-Degradation A375.10 BRAF 2 hours Emax (BRAF V600E)	DC50 (BRAF V600E; [1]) [nM]	DC50 (BRAF V600E; [2]) [nM]	DC50 (BRAF V600E; A375.10 cells, BRAF V600E, 6 hours, inflection point, read-out: HiBiT-Degradation A375.10 BRAF 6 hours IP) [nM]	DC50 (BRAF V600E; A375.10 cells, BRAF V600E, 6 hours, read-out: HiBiT-Degradation A375.10 BRAF 6 hours DC50) [nM]	HiBiT-Degradation A375.10 BRAF 6 hours Emax (BRAF V600E; A375.10 cells, BRAF V600E, 6 hours, residual protein remaining)	HiBiT-Degradation A375.10 BRAF 24 hours Emax (BRAF V600E; A375.10 cells, HiBiT, BRAF V600E, 24 hours)	DC50 (BRAF V600E; A375.10 cells, HiBiT, BRAF V600E, 24 hours, read-out: HiBiT-Degradation A375.10 BRAF 24 hours DC50) [nM]	DC50 (BRAF V600E; A375.10 cells, HiBiT, BRAF V600E, 24 hours, read-out: HiBiT-Degradation A375.10 BRAF 24 hours IP) [nM]	GI50 (A375-NRAS^Q61K cells) [nM]	HiBiT-Degradation A375.10 BRAF 2 hours Emax (BRAF V600E; [3])	Emax (BRAF V600E; A375.10 cells, BRAF V600E, 2 hours, residual protein remaining, read-out: HiBiT-Degradation A375.10 BRAF 2 hours Emax) [%]	SMILES	CTGlo A375.11 96 hours Emax (A375-NRAS^Q61K cells; lowest % viability achieved)	Emax (A375-NRAS^Q61K cells; Homo sapiens, 96 h, lowest % viability achieved) [%]
*** (<=50%)	< 1000	< 1000	< 1000	< 1000	*** (<=50%)	*** (<=50%)	< 1000	< 1000	1000 to 10000	–	–	CCN(C)S(=O)(=O)Nc1ccc(F)c(Oc2ccc3ncn([C@@H]4COC5(CCN(C6CCC(c7cc8c(cc7F)c(N7CCC(=O)NC7=O)nn8C)CC6)CC5)C4)c(=O)c3c2F)c1C#N (single isomer, unassigned) [Compound 47]	** (<90% and >50%)	–
–	< 1000	< 1000	–	–	–	–	–	–	1000 to 10000	** (<90% and >50%)	–	CCN(C)S(=O)(=O)Nc1ccc(F)c(Oc2ccc3ncn([C@H]4COC5(CCN(C6CCC(c7ccc(NC8CCC(=O)NC8=O)cc7F)CC6)CC5)C4)c(=O)c3c2F)c1C#N (single isomer, unassigned) [Compound 51]	*** (<=50%)	–
–	< 1000	< 1000	–	–	–	–	–	–	1000 to 10000	*** (<=50%)	–	CCN(C)S(=O)(=O)Nc1ccc(F)c(Oc2ccc3ncn([C@@H]4COC5(CCN(C6CCC(c7ccc(NC8CCC(=O)NC8=O)cc7F)CC6)CC5)C4)c(=O)c3c2F)c1C#N (single isomer, unassigned) [Compound 53]	** (<90% and >50%)	–
–	< 1000	< 1000	–	–	–	–	–	–	> 10000	–	< 50	CCN(C)S(=O)(=O)Nc1ccc(F)c(Nc2ccc3ncn([C@H]4COC5(CCN(C6CCC(c7ccc(NC8CCC(=O)NC8=O)cc7F)CC6)CC5)C4)c(=O)c3c2)c1C#N (single isomer, unassigned) [Compound 56]	–	50 to 90
